Source: patent US20100209486A1, “Method of enhancing CoenzymeQ10 levels in mammals” (priority 2009, published 2010)

Tests used:
[1] = tested on: isolated guinea pig hearts; test: Reperfusion-induced ventricular fibrillation in isolated ischemic/reperfused hearts from orally treated guinea pigs; assay type: in vivo; conditions: 5 mg/kg/day oral for 4 weeks; 30 min global ischemia then reperfusion; drug-free control 92%
Procedure: FIG. 1. The incidence of reperfusion-induced ventricular fibrillation (VF). Guinea pigs were orally treated with a daily dose of 5 mg/kg of CoQ10 or CoQ9 or vehicle control for 4 weeks, and then hearts were excised, and isolated for perfusion via Langendorff mode and subjected to 30 min of global ischemia followed by 120 min of reperfusion. N=12 in each group, *p<0.05 compared to the drug-free control (C) group.
(§1) Experimental studies were designed to determine if CoQ9 could protect guinea pig hearts from ischemia reperfusion injury. Myocardial ischemia reperfusion injury model is the most widely accepted experimental method for assessment of parameters related to cardio-protection. […] Cardioprotection was assessed by evaluating left ventricular function, ventricular arrhythmias, myocardial infarct size and cardiomyocyte apoptosis.
Protective effect of CoQ9 and CoQ10 against from Ventricular Fibrillation (VF): Healthy Male Hartley guinea pigs of about 350-400 gm body weight were randomly divided into three groups, Control, CoQ9 and CoQ10. […] Epicardial ECG was recorded through out the experiment, by attaching two silver electrodes directly to the myocardium and data collected using a data acquisition system (ADInstruments, Powerlab, Castle Hill, Australia). ECGs were analyzed to determine ventricular fibrillation (VF) and ventricular tachycardia (VT). […]

[2] = tested on: isolated guinea pig hearts; test: Cardiomyocyte apoptosis (TUNEL) in isolated ischemic/reperfused guinea pig hearts; assay type: in vivo; conditions: 5 mg/kg/day oral for 4 weeks; end of reperfusion; percent of total myocyte population; control 21±2%
Procedure: FIG. 2/B. Effects of CoQ10 and CoQ9 on cardiomyocyte apoptosis in isolated guinea pig hearts subjected to 30 min of ischemia followed by 120 min of reperfusion. The bars represent mean±SD of cardiomyocyte apoptosis for control, CoQ10 and CoQ9 supplemented groups. *p<0.05 compared to the untreated age-matched ischemic/reperfused drug-free control (C) value.
as §1
CoQ9 and CoQ10 treatment reduces apoptosis of cardiomyocytes: Animal preparation, drug pretreatment and isolated working heart preparation were done as described in example 1. […] The fluorescence staining was viewed with a confocal laser microscope. The number of apoptotic cells was counted and expressed as a percent of total myocyte population. […] Apoptosis of cardiomyocytes determined by Tunel method in control group was about 21±2% at the end of reperfusion.

| SMILES | incidence of reperfusion-induced ventricular fibrillation (VF) [1] [%] | apoptotic cardiomyocytes (Tunel method) [2] [%] |
| --- | --- | --- |
| COC1=C(OC)C(=O)C(C/C=C(\C)CC/C=C(\C)CC/C=C(\C)CC/C=C(\C)CC/C=C(\C)CC/C=C(\C)CC/C=C(\C)CC/C=C(\C)CCC=C(C)C)=C(C)C1=O [CoQ9, Coenzyme Q9] | 8 | 7±1.5 |
| COC1=C(OC)C(=O)C(C/C=C(\C)CC/C=C(\C)CC/C=C(\C)CC/C=C(\C)CC/C=C(\C)CC/C=C(\C)CC/C=C(\C)CC/C=C(\C)CC/C=C(\C)CCC=C(C)C)=C(C)C1=O [CoQ10, Coenzyme Q10, reference compound] | 25 | 6±1 |
